{
  "source": "paper PMC7954579",
  "about": "(Cancer chemotherapy and pharmacology, 2020)",
  "key": {"[1]": {"system": "HSP90", "conditions": "cited from earlier work"}, "[2]": {"assay": "Plasma pharmacokinetics in patients", "assay_type": "in vivo, human", "conditions": "for AUC / Cmax / half-life: human, plasma"}, "[3]": {"conditions": "twice-weekly schedule, monotherapy; cited from earlier work"}, "[4]": {"system": "HSP70", "assay": "HSP70 protein in patient PBMCs by western blot", "assay_type": "in vivo, human", "conditions": "after onalespib alone (C0D4), all dose levels"}, "[5]": {"conditions": "IV, days 1, 4, 8, 11 of 21-day cycle, with AT7519 21 mg/m^2 (DL2)"}, "[6]": {"system": "HSP70", "assay": "Soluble HSP70 protein in patient plasma by ELISA", "assay_type": "in vivo, human"}, "[7]": {"conditions": "All dose levels, C0D1, onalespib alone, n = 27, geometric mean"}, "[8]": {"conditions": "All dose levels, C1D1, onalespib with AT7519, n = 24, geometric mean"}, "[9]": {"conditions": "All dose levels, C1D11, onalespib with AT7519, n = 16, geometric mean"}, "[10]": {"conditions": "DL1, C0D1, onalespib 40 mg/m^2 IV alone, n = 5, geometric mean"}, "[11]": {"conditions": "DL1, C1D1, onalespib 40 mg/m^2 with AT7519 21 mg/m^2, n = 4, geometric mean"}, "[12]": {"conditions": "DL1, C1D11, onalespib 40 mg/m^2 with AT7519 21 mg/m^2, n = 2, geometric mean"}, "[13]": {"conditions": "DL2, C0D1, onalespib 80 mg/m^2 IV alone, n = 17, geometric mean"}, "[14]": {"conditions": "DL2, C1D1, onalespib 80 mg/m^2 with AT7519 21 mg/m^2, n = 16, geometric mean"}, "[15]": {"conditions": "DL2, C1D11, onalespib 80 mg/m^2 with AT7519 21 mg/m^2, n = 11, geometric mean"}, "[16]": {"conditions": "DL3, C0D1, onalespib 80 mg/m^2 IV alone, n = 5, geometric mean"}, "[17]": {"conditions": "DL3, C1D1, onalespib 80 mg/m^2 with AT7519 27 mg/m^2, n = 4, geometric mean"}, "[18]": {"conditions": "DL3, C1D11, onalespib 80 mg/m^2 with AT7519 27 mg/m^2, n = 3, geometric mean"}},
  "data": [
    {"compound": "CC(C)c1cc(C(=O)N2Cc3ccc(CN4CCN(C)CC4)cc3C2)c(O)cc1O", "note": "[onalespib, (2,4-dihydroxy-5-isopropylphenyl)-[5-(4-methylpiperazin-1-ylmethyl)-1,3-dihydroisoindol-2-yl]methanone]", "values": [
      {"measurement": "IC50", "setting": "[1]", "result": 700, "unit": "pM"},
      {"measurement": "CL", "setting": "[2]; [7]", "result": 52.2, "unit": "L/h/m^2"},
      {"measurement": "Vz", "setting": "[2]; [7]", "result": 754, "unit": "L/m^2"},
      {"measurement": "CL", "setting": "[2]; [8]", "result": 58.4, "unit": "L/h/m^2"},
      {"measurement": "Vz", "setting": "[2]; [8]", "result": 725, "unit": "L/m^2"},
      {"measurement": "CL", "setting": "[2]; [9]", "result": 61.0, "unit": "L/h/m^2"},
      {"measurement": "Vz", "setting": "[2]; [9]", "result": 706, "unit": "L/m^2"},
      {"measurement": "CL", "setting": "[2]; [10]", "result": 51.3, "unit": "L/h/m^2"},
      {"measurement": "Vz", "setting": "[2]; [10]", "result": 742, "unit": "L/m^2"},
      {"measurement": "CL", "setting": "[2]; [11]", "result": 64.4, "unit": "L/h/m^2"},
      {"measurement": "Vz", "setting": "[2]; [11]", "result": 891, "unit": "L/m^2"},
      {"measurement": "CL", "setting": "[2]; [12]", "result": 65.6, "unit": "L/h/m^2"},
      {"measurement": "Vz", "setting": "[2]; [12]", "result": 855, "unit": "L/m^2"},
      {"measurement": "CL", "setting": "[2]; [13]", "result": 53.8, "unit": "L/h/m^2"},
      {"measurement": "Vz", "setting": "[2]; [13]", "result": 804, "unit": "L/m^2"},
      {"measurement": "CL", "setting": "[2]; [14]", "result": 57.5, "unit": "L/h/m^2"},
      {"measurement": "Vz", "setting": "[2]; [14]", "result": 721, "unit": "L/m^2"},
      {"measurement": "CL", "setting": "[2]; [15]", "result": 62.5, "unit": "L/h/m^2"},
      {"measurement": "Vz", "setting": "[2]; [15]", "result": 743, "unit": "L/m^2"},
      {"measurement": "CL", "setting": "[2]; [16]", "result": 47.7, "unit": "L/h/m^2"},
      {"measurement": "Vz", "setting": "[2]; [16]", "result": 617, "unit": "L/m^2"},
      {"measurement": "CL", "setting": "[2]; [17]", "result": 56.7, "unit": "L/h/m^2"},
      {"measurement": "Vz", "setting": "[2]; [17]", "result": 606, "unit": "L/m^2"},
      {"measurement": "CL", "setting": "[2]; [18]", "result": 53.1, "unit": "L/h/m^2"},
      {"measurement": "Vz", "setting": "[2]; [18]", "result": 516, "unit": "L/m^2"},
      {"measurement": "AUC", "setting": "[2]; intravenous, AUC, DL1, C1D1, onalespib 40 mg/m^2 with AT7519 21 mg/m^2, n = 4, geometric mean", "result": 621, "unit": "ng·h/mL"},
      {"measurement": "AUC", "setting": "[2]; intravenous, AUC, DL1, C1D11, onalespib 40 mg/m^2 with AT7519 21 mg/m^2, n = 2, geometric mean", "result": 610, "unit": "ng·h/mL"},
      {"measurement": "AUC", "setting": "[2]; intravenous, AUC, DL2, C1D1, onalespib 80 mg/m^2 with AT7519 21 mg/m^2, n = 16, geometric mean", "result": 1390, "unit": "ng·h/mL"},
      {"measurement": "AUC", "setting": "[2]; intravenous, AUC, DL2, C1D11, onalespib 80 mg/m^2 with AT7519 21 mg/m^2, n = 11, geometric mean", "result": 1280, "unit": "ng·h/mL"},
      {"measurement": "AUC", "setting": "[2]; intravenous, AUC, DL3, C1D1, onalespib 80 mg/m^2 with AT7519 27 mg/m^2, n = 4, geometric mean", "result": 1410, "unit": "ng·h/mL"},
      {"measurement": "AUC", "setting": "[2]; intravenous, AUC, DL3, C1D11, onalespib 80 mg/m^2 with AT7519 27 mg/m^2, n = 3, geometric mean", "result": 1510, "unit": "ng·h/mL"},
      {"measurement": "Cmax", "setting": "[2]; intravenous, Cmax, DL1, C1D1, onalespib 40 mg/m^2 with AT7519 21 mg/m^2, n = 4, geometric mean", "result": 146, "unit": "ng/mL"},
      {"measurement": "Cmax", "setting": "[2]; intravenous, Cmax, DL1, C1D11, onalespib 40 mg/m^2 with AT7519 21 mg/m^2, n = 2, geometric mean", "result": 155, "unit": "ng/mL"},
      {"measurement": "Cmax", "setting": "[2]; intravenous, Cmax, DL2, C1D1, onalespib 80 mg/m^2 with AT7519 21 mg/m^2, n = 16, geometric mean", "result": 331, "unit": "ng/mL"},
      {"measurement": "Cmax", "setting": "[2]; intravenous, Cmax, DL2, C1D11, onalespib 80 mg/m^2 with AT7519 21 mg/m^2, n = 11, geometric mean", "result": 355, "unit": "ng/mL"},
      {"measurement": "Cmax", "setting": "[2]; intravenous, Cmax, DL3, C1D1, onalespib 80 mg/m^2 with AT7519 27 mg/m^2, n = 4, geometric mean", "result": 331, "unit": "ng/mL"},
      {"measurement": "Cmax", "setting": "[2]; intravenous, Cmax, DL3, C1D11, onalespib 80 mg/m^2 with AT7519 27 mg/m^2, n = 3, geometric mean", "result": 424, "unit": "ng/mL"},
      {"measurement": "half-life", "setting": "[2]; intravenous, t1/2,z, All dose levels, C0D1, onalespib alone, n = 27, geometric mean", "result": 10, "unit": "h"},
      {"measurement": "half-life", "setting": "[2]; intravenous, t1/2,z, DL1, C1D1, onalespib 40 mg/m^2 with AT7519 21 mg/m^2, n = 4, geometric mean", "result": 9.6, "unit": "h"},
      {"measurement": "half-life", "setting": "[2]; intravenous, t1/2,z, DL1, C1D11, onalespib 40 mg/m^2 with AT7519 21 mg/m^2, n = 2, geometric mean", "result": 9.4, "unit": "h"},
      {"measurement": "half-life", "setting": "[2]; intravenous, t1/2,z, DL2, C1D1, onalespib 80 mg/m^2 with AT7519 21 mg/m^2, n = 16, geometric mean", "result": 8.7, "unit": "h"},
      {"measurement": "half-life", "setting": "[2]; intravenous, t1/2,z, DL2, C1D11, onalespib 80 mg/m^2 with AT7519 21 mg/m^2, n = 11, geometric mean", "result": 8.2, "unit": "h"},
      {"measurement": "half-life", "setting": "[2]; intravenous, t1/2,z, DL3, C1D1, onalespib 80 mg/m^2 with AT7519 27 mg/m^2, n = 4, geometric mean", "result": 7.4, "unit": "h"},
      {"measurement": "half-life", "setting": "[2]; intravenous, t1/2,z, DL3, C1D11, onalespib 80 mg/m^2 with AT7519 27 mg/m^2, n = 3, geometric mean", "result": 6.7, "unit": "h"},
      {"measurement": "AUC", "setting": "[2]; iv, 40 mg/m2, AUC, DL1, C0D1, onalespib 40 mg/m^2 IV alone, n = 5, geometric mean", "result": 780, "unit": "ng·h/mL"},
      {"measurement": "Cmax", "setting": "[2]; iv, 40 mg/m2, Cmax, DL1, C0D1, onalespib 40 mg/m^2 IV alone, n = 5, geometric mean", "result": 193, "unit": "ng/mL"},
      {"measurement": "half-life", "setting": "[2]; iv, 40 mg/m2, t1/2,z, DL1, C0D1, onalespib 40 mg/m^2 IV alone, n = 5, geometric mean", "result": 10, "unit": "h"},
      {"measurement": "AUC", "setting": "[2]; iv, 80 mg/m2, AUC, DL2, C0D1, onalespib 80 mg/m^2 IV alone, n = 17, geometric mean", "result": 1490, "unit": "ng·h/mL"},
      {"measurement": "AUC", "setting": "[2]; iv, 80 mg/m2, AUC, DL3, C0D1, onalespib 80 mg/m^2 IV alone, n = 5, geometric mean", "result": 1680, "unit": "ng·h/mL"},
      {"measurement": "Cmax", "setting": "[2]; iv, 80 mg/m2, Cmax, DL2, C0D1, onalespib 80 mg/m^2 IV alone, n = 17, geometric mean", "result": 349, "unit": "ng/mL"},
      {"measurement": "Cmax", "setting": "[2]; iv, 80 mg/m2, Cmax, DL3, C0D1, onalespib 80 mg/m^2 IV alone, n = 5, geometric mean", "result": 487, "unit": "ng/mL"},
      {"measurement": "half-life", "setting": "[2]; iv, 80 mg/m2, t1/2,z, DL2, C0D1, onalespib 80 mg/m^2 IV alone, n = 17, geometric mean", "result": 10.4, "unit": "h"},
      {"measurement": "half-life", "setting": "[2]; iv, 80 mg/m2, t1/2,z, DL3, C0D1, onalespib 80 mg/m^2 IV alone, n = 5, geometric mean", "result": 9, "unit": "h"},
      {"measurement": "RP2D as individual agent", "setting": "[3]", "result": 120, "unit": "mg/m^2"},
      {"measurement": "HSP70 protein expression in PBMCs", "setting": "[4]", "result": "Increased HSP70 protein expression"},
      {"measurement": "Maximally tolerated dose (MTD) of onalespib in the combination", "setting": "[5]", "result": 80, "unit": "mg/m^2"},
      {"measurement": "HSP70 protein expression in plasma", "setting": "[6]; after onalespib alone (C0D4), all dose levels", "result": "Increased HSP70 protein expression"},
      {"measurement": "Soluble HSP70 expression in plasma", "setting": "[6]; patient with palate adenocarcinoma (confirmed PR), after onalespib alone", "result": "increase in soluble HSP70 expression"}
    ]}
  ]
}
